Positions of bridges follow the written chain, without caps; N, C: chain ends. Non-standard residues stand in square brackets, D forms with d. Residues, ends and D or L forms follow the SMILES beside them. Phe(3-Me) = Cc1cccc(C[C@H](N)C(=O)O)c1; Cit = NC(=O)NCCC[C@H](N)C(=O)O; Ahp(2) = CCCCC[C@H](N)C(=O)O; NHexGly = CCCCCCNCC(=O)O; Nle = CCCC[C@H](N)C(=O)O; Orn = NCCC[C@H](N)C(=O)O

This assay concerns the target T1, mouse VISTA (mVISTA) (Mus musculus, UniProt Q9D659).
T1 construct: expressed in transfected cells; host or cells: Human embryonic kidney 293T cells
T1 sequence (Q9D659 33-308): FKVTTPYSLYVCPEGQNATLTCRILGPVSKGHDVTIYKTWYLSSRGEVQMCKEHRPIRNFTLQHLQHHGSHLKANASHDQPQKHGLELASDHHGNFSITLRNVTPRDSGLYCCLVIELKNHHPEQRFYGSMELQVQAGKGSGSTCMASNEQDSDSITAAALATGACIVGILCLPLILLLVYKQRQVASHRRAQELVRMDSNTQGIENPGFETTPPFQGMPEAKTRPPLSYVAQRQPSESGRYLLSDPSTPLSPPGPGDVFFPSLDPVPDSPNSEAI
As to the kind of experiment: Cell-Based Binding High-Content Assay For mVISTA (HC CBA mVISTA). Particulars: the 19th table, scaffold drawing 22; read-out: HC CBA mVISTA IC50. An outline of the steps:
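mVISTA-293T, 4,000 cells/well; cpd ± washout step; biotin-peptide 2 nM final, 30 min RT; SA-Alexa 647 30 min; formaldehyde/Hoechst fix; HCS imaging; 4PL IC50.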
As for `CCCCCCN1CC(=O)N[C@@H](Cc2ccc(O)cc2)C(=O)N[C@@H](CCCC)C(=O)N[C@@H](CC(N)=O)C(=O)N[C@@H](CCCNC(N)=O)C(=O)N[C@@H](CC(C)C)C(=O)N[C@@H](CCCCC)C(=O)N2CCC[C@H]2C(=O)N[C@@H](C(C)C)C(=O)N[C@@H](CC(=O)O)C(=O)N[C@H](C(=O)NCC(=O)O)CSCC(=O)N[C@@H](Cc2cccc(C)c2)C(=O)N[C@@H](Cc2c[nH]c3ccccc23)C(=O)N[C@@H](CC(=O)O)C1=O` [compound 1423] ({CH2CO}-[Phe(3-Me)]WD[NHexGly]Y[Nle]N[Cit]L[Ahp(2)]PVDCG-OH; thioether N-14), the IC50 came to 16.7 nM.

With `CCCCCCN1CC(=O)N[C@@H](Cc2ccc(O)cc2)C(=O)N[C@@H](CCCC)C(=O)N[C@@H](CC(N)=O)C(=O)N[C@@H](CCCNC(=N)N)C(=O)N[C@@H](CC(C)C)C(=O)N[C@@H](CCCCC)C(=O)N2CCC[C@H]2C(=O)N[C@@H](C(C)C)C(=O)N[C@@H](CC(=O)O)C(=O)N[C@H](C(=O)N[C@@H](CO)C(=O)O)CSCC(=O)N[C@@H](Cc2cccc(C)c2)C(=O)N[C@@H](Cc2c[nH]c3ccccc23)C(=O)N[C@@H](CC(=O)O)C1=O` [compound 1424] ({CH2CO}-[Phe(3-Me)]WD[NHexGly]Y[Nle]NRL[Ahp(2)]PVDCS-OH; thioether N-14), the concentration for half-maximal inhibition (IC50) came out at 11.9 nM.

Take `CCCCCCN1CC(=O)N[C@@H](Cc2ccc(O)cc2)C(=O)N[C@@H](CCCC)C(=O)NCC(=O)N[C@@H](CCCNC(=N)N)C(=O)N[C@@H](CC(C)C)C(=O)N[C@@H](CCCCC)C(=O)N2CCC[C@H]2C(=O)N[C@@H](C(C)C)C(=O)N[C@@H](CC(=O)O)C(=O)N[C@H](C(=O)N[C@@H](CO)C(=O)O)CSCC(=O)N[C@@H](Cc2cccc(C)c2)C(=O)N[C@@H](Cc2c[nH]c3ccccc23)C(=O)N[C@@H](CC(=O)O)C1=O` [compound 1425] ({CH2CO}-[Phe(3-Me)]WD[NHexGly]Y[Nle]GRL[Ahp(2)]PVDCS-OH; thioether N-14): the IC50 turned out to be 13.4 nM.

For `CCCCCCN1CC(=O)N[C@@H](Cc2ccc(O)cc2)C(=O)N[C@@H](CC(C)C)C(=O)N[C@@H](CC(N)=O)C(=O)N[C@@H](CCCNC(=N)N)C(=O)N[C@@H](CC(C)C)C(=O)N[C@@H](CCCCC)C(=O)N2CCC[C@H]2C(=O)N[C@@H](C(C)C)C(=O)N[C@@H](C(C)C)C(=O)N[C@H](C(=O)N[C@@H](CO)C(=O)O)CSCC(=O)N[C@@H](Cc2cccc(C)c2)C(=O)N[C@@H](Cc2c[nH]c3ccccc23)C(=O)N[C@@H](CC(=O)O)C1=O` [compound 1426] ({CH2CO}-[Phe(3-Me)]WD[NHexGly]YLNRL[Ahp(2)]PVVCS-OH; thioether N-14), the IC50 turned out to be 4.1 nM.

Turning to `CCCCCCN1CC(=O)N[C@@H](Cc2ccc(O)cc2)C(=O)N[C@@H](CCCC)C(=O)N[C@@H](CC(=O)O)C(=O)N[C@@H](CCCN)C(=O)N[C@@H](CC(C)C)C(=O)N[C@@H](CCCCC)C(=O)N2CCC[C@H]2C(=O)N[C@@H](C(C)C)C(=O)N[C@@H](CC(=O)O)C(=O)N[C@H](C(=O)N[C@@H](CO)C(N)=O)CSCC(=O)N[C@@H](Cc2cccc(C)c2)C(=O)N[C@@H](Cc2c[nH]c3ccccc23)C(=O)N[C@@H](CC(=O)O)C1=O` [compound 1427] ({CH2CO}-[Phe(3-Me)]WD[NHexGly]Y[Nle]D[Orn]L[Ahp(2)]PVDCS-NH2; thioether N-14), the IC50 stood at 9.4 nM.

As to `CCCCCCN1CC(=O)N[C@@H](Cc2ccc(O)cc2)C(=O)N[C@@H](CCCC)C(=O)N[C@@H](CC(=O)O)C(=O)N[C@@H](CCCNC(=N)N)C(=O)N[C@@H](CC(C)C)C(=O)N[C@@H](CCCCC)C(=O)N2CCC[C@H]2C(=O)N[C@@H](C(C)C)C(=O)N[C@@H](CC(=O)O)C(=O)N[C@H](C(=O)N[C@@H](CO)C(N)=O)CSCC(=O)N[C@@H](Cc2cccc(C)c2)C(=O)N[C@@H](Cc2c[nH]c3ccccc23)C(=O)N[C@@H](CC(=O)O)C1=O` [compound 1428] ({CH2CO}-[Phe(3-Me)]WD[NHexGly]Y[Nle]DRL[Ahp(2)]PVDCS-NH2; thioether N-14), the IC50 was 13.6 nM.

On to `CCCCCCN1CC(=O)N[C@@H](Cc2ccc(O)cc2)C(=O)N[C@@H](CCCC)C(=O)N[C@@H](CC(=O)O)C(=O)N[C@@H](CCCN)C(=O)N[C@@H](CC(C)C)C(=O)N[C@@H](CCCCC)C(=O)N2CCC[C@H]2C(=O)N[C@@H](C(C)C)C(=O)N[C@@H](CC(=O)O)C(=O)N[C@H](C(=O)N[C@@H](CC(=O)O)C(N)=O)CSCC(=O)N[C@@H](Cc2cccc(C)c2)C(=O)N[C@@H](Cc2ccc(O)cc2)C(=O)N[C@@H](CC(=O)O)C1=O` [compound 1430] ({CH2CO}-[Phe(3-Me)]YD[NHexGly]Y[Nle]D[Orn]L[Ahp(2)]PVDCD-NH2; thioether N-14), for which the IC50 came out at 6.2 nM.

On to `CCCCCCN1CC(=O)N[C@@H](Cc2ccc(O)cc2)C(=O)N[C@@H](CCCC)C(=O)NCC(=O)N[C@@H](CCCNC(=N)N)C(=O)N[C@@H](CC(C)C)C(=O)N[C@@H](CCCCC)C(=O)N2CCC[C@H]2C(=O)N[C@@H](C(C)C)C(=O)N[C@@H](CC(=O)O)C(=O)N[C@H](C(=O)NCC(=O)O)CSCC(=O)N[C@@H](Cc2cccc(C)c2)C(=O)N[C@@H](Cc2ccc(O)cc2)C(=O)N[C@@H](CC(=O)O)C1=O` [compound 1431] ({CH2CO}-[Phe(3-Me)]YD[NHexGly]Y[Nle]GRL[Ahp(2)]PVDCG-OH; thioether N-14), for which the IC50 is 2.5 nM.

Take `CCCCCCN1CC(=O)N[C@@H](Cc2ccc(O)cc2)C(=O)N[C@@H](CC(C)C)C(=O)N[C@@H](CC(N)=O)C(=O)N[C@@H](CCCNC(=N)N)C(=O)N[C@@H](CC(C)C)C(=O)N[C@@H](CCCCC)C(=O)N2CCC[C@H]2C(=O)N[C@@H](C(C)C)C(=O)N[C@@H](C(C)C)C(=O)N[C@H](C(=O)NCC(=O)O)CSCC(=O)N[C@@H](Cc2cccc(C)c2)C(=O)N[C@@H](Cc2ccc(O)cc2)C(=O)N[C@@H](CC(=O)O)C1=O` [compound 1432] ({CH2CO}-[Phe(3-Me)]YD[NHexGly]YLNRL[Ahp(2)]PVVCG-OH; thioether N-14): the IC50 came to 3 nM.

Turning to `CCCCCCN1CC(=O)N[C@@H](Cc2ccc(O)cc2)C(=O)N[C@@H](CC(C)C)C(=O)N[C@@H](CC(N)=O)C(=O)N[C@@H](CCCNC(=N)N)C(=O)N[C@@H](CC(C)C)C(=O)N[C@@H](CCCCC)C(=O)N2CCC[C@H]2C(=O)N[C@@H](C(C)C)C(=O)N[C@@H](C(C)C)C(=O)N[C@H](C(=O)N[C@@H](CO)C(=O)O)CSCC(=O)N[C@@H](Cc2cccc(C)c2)C(=O)N[C@@H](Cc2ccc(O)cc2)C(=O)N[C@@H](CC(=O)O)C1=O` [compound 1434] ({CH2CO}-[Phe(3-Me)]YD[NHexGly]YLNRL[Ahp(2)]PVVCS-OH; thioether N-14), the IC50 is 20.4 nM.

`CCCCCCN1CC(=O)N[C@@H](Cc2ccc(O)cc2)C(=O)N[C@@H](CCCC)C(=O)NCC(=O)N[C@@H](CCCNC(=N)N)C(=O)N[C@@H](CC(C)C)C(=O)N[C@@H](CCCCC)C(=O)N2CCC[C@H]2C(=O)N[C@@H](C(C)C)C(=O)N[C@@H](CC(=O)O)C(=O)N[C@H](C(=O)N[C@@H](CO)C(=O)O)CSCC(=O)N[C@@H](Cc2cccc(C)c2)C(=O)N[C@@H](Cc2ccc(O)cc2)C(=O)N[C@@H](CC(=O)O)C1=O` [compound 1435] ({CH2CO}-[Phe(3-Me)]YD[NHexGly]Y[Nle]GRL[Ahp(2)]PVDCS-OH; thioether N-14): the IC50 came out at 9.4 nM.

As a reminder, the IC50 is the concentration that gives 50% inhibition.

Source of the values: patent US20240218022A1, “ANTI-VISTA MACROCYCLIC PEPTIDES AND COMPOSITIONS” (BRISTOL-MYERS SQUIBB COMPANY, priority 2022, published 2024).
